The SangsterLogP compilation

Assay: from Draber, W.; Büchel, H.; Dickore, K.; Trebst, A.; Pistorius, E. (1969). Structure-activity correlation of 1,2,4-triazinones, a new group of photosynthesis inhibitors. In: Progress in Photosynthesis …
Settings: pH 7.0

logD | SMILES
0.49 | CC(C)c1nnc(N2CCOCC2)n(N)c1=O
0.3 | CNc1nnc(C(C)C)c(=O)n1N
0.38 | CSc1nnc(C2CCCCO2)c(=O)n1N (stereo not given)
2.06 | CC(C)Sc1nnc(C(C)C)c(=O)n1N
2.12 | CCCSc1nnc(C(C)C)c(=O)n1N
1.52 | CCSc1nnc(C(C)C)c(=O)n1N
1.78 | CCCCNc1nnc(C(C)C)c(=O)n1N
-0.06 | COc1nnc(C(C)C)c(=O)n1N
1.66 | CSc1nnc(-c2ccccc2)c(=O)n1N
0.38 | CSc1nncc(=O)n1N
2.68 | CCCCCCc1nnc(SC)n(N)c1=O
1.85 | CSc1nnc(CCC(C)C)c(=O)n1N
0.46 | CCc1nnc(SC)n(N)c1=O
2.07 | CC(C)c1nnc(SCC(=O)c2ccccc2)n(N)c1=O

SMILES | logD
CSc1nnc(C(C)(C)C)c(=O)n1N | 1.7
